# Assay results from publication PMC8119482, “A novel dual HDAC and HSP90 inhibitor, MPT0G449, downregulates oncogenic pathways in human acute leukemia in vitro and in vivo” (Oncogenesis, 2021).
# Target: T1, HDAC6 (Homo sapiens, UniProt Q9UBN7)
# T1 sequence (Q9UBN7 1-1215): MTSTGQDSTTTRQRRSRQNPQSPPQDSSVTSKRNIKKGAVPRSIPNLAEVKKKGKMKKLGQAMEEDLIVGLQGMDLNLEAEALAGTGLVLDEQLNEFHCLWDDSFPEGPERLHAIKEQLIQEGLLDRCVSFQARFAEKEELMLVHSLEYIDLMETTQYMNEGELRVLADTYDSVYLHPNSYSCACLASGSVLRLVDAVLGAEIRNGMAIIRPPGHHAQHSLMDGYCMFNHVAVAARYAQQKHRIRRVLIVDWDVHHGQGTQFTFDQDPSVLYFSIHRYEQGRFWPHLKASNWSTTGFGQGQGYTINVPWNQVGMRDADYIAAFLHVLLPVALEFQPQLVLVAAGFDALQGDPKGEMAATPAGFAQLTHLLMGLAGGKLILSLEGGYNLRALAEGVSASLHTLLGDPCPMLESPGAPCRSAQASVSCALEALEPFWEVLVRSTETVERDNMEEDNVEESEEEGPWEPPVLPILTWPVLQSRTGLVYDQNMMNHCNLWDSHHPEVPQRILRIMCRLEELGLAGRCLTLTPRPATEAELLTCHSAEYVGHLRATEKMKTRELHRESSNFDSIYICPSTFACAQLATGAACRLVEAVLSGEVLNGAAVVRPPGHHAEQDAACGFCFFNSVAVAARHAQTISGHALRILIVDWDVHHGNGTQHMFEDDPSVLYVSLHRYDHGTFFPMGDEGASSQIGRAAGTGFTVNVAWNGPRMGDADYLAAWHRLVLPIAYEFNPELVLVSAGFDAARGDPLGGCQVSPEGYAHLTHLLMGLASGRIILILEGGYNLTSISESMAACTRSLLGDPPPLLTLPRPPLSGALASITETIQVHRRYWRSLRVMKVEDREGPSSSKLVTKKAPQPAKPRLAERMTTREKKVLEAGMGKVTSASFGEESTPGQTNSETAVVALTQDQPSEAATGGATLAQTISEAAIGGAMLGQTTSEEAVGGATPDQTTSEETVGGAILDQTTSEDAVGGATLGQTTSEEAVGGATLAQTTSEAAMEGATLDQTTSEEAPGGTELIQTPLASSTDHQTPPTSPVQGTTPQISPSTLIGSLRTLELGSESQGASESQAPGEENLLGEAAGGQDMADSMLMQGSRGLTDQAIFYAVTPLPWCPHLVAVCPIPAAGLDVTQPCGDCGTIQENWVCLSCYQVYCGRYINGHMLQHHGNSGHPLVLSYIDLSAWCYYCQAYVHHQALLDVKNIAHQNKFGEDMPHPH
# Assay: HDAC isoform activity assay (Reaction Biology Corp.); values not shown in main text
# Assay type: biochemical
smiles,measurement,value
"CC(C)c1cc(C(=O)N(C)c2ccc(NC(=O)CCCCCCCC(=O)NO)cc2)c(O)cc1O [compound 26, MPT0G449]",HDAC isoform activity assay (Reaction Biology Corp.); values not shown in main t,HDAC6 was selected because MPT0G499 exhibited the most potent inhibition.
